{"source": "paper PMC6290777", "about": "“Inhalation of the prodrug PI3K inhibitor CL27c improves lung function in asthma and fibrosis” (Nature Communications, 2018)", "test_system": "AKT phosphorylation in IPF human lung fibroblasts", "assay": "AKT phosphorylation of human lung fibroblasts", "type": "cell-based", "conditions": "IPF cells; CL27c 10 µM", "method": "Human lung fibroblast cell culture\nTwo separate human lung fibroblast cell lines isolated from IPF patients were used: LL97a derived from a person (ATCC, Manassas, USA) and DHLF-IPF (#CC-7231, Lonza, Switzerland). Control cell lines were CCD-16Lu, obtained from a person that died of astrocytoma –a disease unrelated to IPF - (ATCC) and NHLF (#CC-2512; Lonza). LL97a and CCD-16Lu cells were cultured in Dulbecco's modified Eagles medium (DMEM, Sigma Aldrich, Dorset, UK). Media was supplemented with penicillin/streptomycin (100 U/ml, Thermo-Fischer, Germany) and 10% fetal bovine serum (FBS, Thermo-Fischer, Germany). Cells from Lonza were cultured in the FGMTM (#CC-3132, Lonza). […]\nCaliper based assay, the reaction was terminated by addition of EDTA buffer. Substrate and product were separated and quantified electrophoretically using the microfluidic-based and the assay plate was read on Caliper LabChip 3000 Drug Discovery System from Caliper Life Sciences (Walthan, MA, USA). ADP Glo was another method of detection used for some kinase assays where data was obtained by quantifying the intensity of luminescence. For ADP Glo based assay, the reaction was terminated by applying the Promega ADP Glo Kinase Assay kit and the assay plate was read on a LJL Biosystems Analyst HT. […]"}
{"smiles": "COC(=O)c1cccc(Cn2cc(-c3cccc4c(=O)cc(N5CCOCC5)[nH]c34)nn2)c1", "note": "[CL27c]", "values": [{"measurement": "serum-induced AKT phosphorylation", "value": "effectively blunted serum-induced AKT phosphorylation"}]}
